From patent US9714433B2, “Human pluripotent stem cells induced from undifferentiated stem cells derived from a human postnatal tissue” (Kyoto University, priority 2007, dated 2017)

Experiments:
mouse Nanog = test: Nanog expression of colonies by quantitative PCR; type: cell-based; details: three genes + MS-275 0.1 or 1.0 μM; compared with alkaline phosphatase-negative colonies; FIG. 3
Protocol: The expression of target gene of each colony including an alkaline phosphatase-positive colonies was determined using quantitative PCR in the following manner. Colonies developed by the induction of pluripotent stem cells were harvested, and RNA was extracted using the Recoverall total nucleic acid isolation kit for FFPE (manufactured by Ambion). After synthesizing cDNA from the extracted RNA, the target gene was amplified using the Taqman Preamp mastermix (manufactured by Applied Biosystems). As the primers for quantitative PCR, the Taqman gene exprESsion assay (manufactured by Applied Biosystems) was used. […] Human Hprt: Hs99999909_m1, human Nanog: Hs02387400_g1, human Tert: Hs00162669_m1, Mouse Hprt: Mm01545399_m1, mouse Nanog: Ma02019550_s1. Then, the amount expressed of the Nanog gene was confirmed by quantitative PCR, and the expression of mouse Nanog of colonies of pluripotent stem cells having alkaline phosphatase activity was confirmed (FIG. 3).

[1] = tested on: cells derived from mouse bone marrow; test: Induction of mouse pluripotent stem cells by three gene introduction and MS-275 treatment (colony formation, alkaline phosphatase staining); type: cell-based
Protocol: Staining for confirming alkaline phosphatase activity which is a characteristic of pluripotent stem cells was conducted in the following manner. After removing the culture medium, a 10% formalin neutral buffer solution was added to wells, and cells were fixed at room temperature for 5 minutes. After washing with a phosphate buffer etc., a chromogenic substrate of alkaline phosphatase, 1 step NBT/BCIP (manufactured by Pierce) was added and reacted at room temperature for 20 to 30 minutes. Cells having alkaline phosphatase activity were all stained blue violet.
The primary culture cells derived from mouse bone marrow containing undifferentiated stem cells that had been stored frozen after preparing in a manner similar to Example 11 were plated at a concentration of 5×10^3 cells/cm^2 on a 24-well plastic plate (manufactured by Becton Dickinson) having the bottom which had been gelatin-coated with a 0.1% gelatin/phosphate buffer, and 2 ml each of the MAPC medium was added.
Eight hours later, the medium was removed, 2 ml each of the three gene (human Oct3/4, Sox2 and Klf4) retrovirus vector solution prepared as in Example 1 were added, and after further adding MS-275, a histone deacetylase inhibitor, at a final concentration of 1 or 0.1 μM, they were cultured at 37° C. for 14 hours. […]

syngeneic C57BL/6N mice = test: Teratoma formation of induced mouse pluripotent stem cells transplanted subcutaneously; type: in vivo; details: cells induced by three genes + MS-275; 2×10^7 cells/mouse subcutaneously; 34 days later; three germ layers observed
Protocol: From the extracted teratoma, slices were prepared, and differentiation potential into three germ layers was analyzed by immunological and histological staining (HE stain, alcian blue stain). As a result, GFAP-positive cells (the nervous system) and keratin producing cells (skin cells) as the ectodermic system, smooth muscle actin-positive cells (smooth muscle cells), bone tissues and cartilage tissues as the mesodermic system, and intestinal tract tissues (endodermal epithelium positive for MUC-1) as the endodermic system were observed.

SMILES: Nc1ccccc1NC(=O)c1ccc(CNC(=O)OCc2cccnc2)cc1 [MS-275, N-(2-aminophenyl)-4-[N-(pyridine-3-yl-methoxycarbonyl)aminomethyl]benzamide]
- expression of Nanog in alkaline phosphatase-positive colonies (mouse Nanog): significantly higher than the alkaline phosphatase-negative colonies
- formation of pluripotent stem cell colonies ([1]; three genes (human Oct3/4, Sox2, Klf4) retrovirus + MS-275 1 or 0.1 μM, fifteen days after): formed colonies composed of mouse ES cell-like small cells
- alkaline phosphatase activity staining of colonies ([1]; three genes + MS-275 1 or 0.1 μM): stained blue violet by alkaline phosphatase activity
- teratoma formation (syngeneic C57BL/6N mice): teratoma that formed was extracted
